Target: T1, c-Raf (Homo sapiens, UniProt P04049)
T1 construct: made in house; host or cells: baculovirus, High-5 (Hi5) insect cells, co-infected with FLAG-vSrc virus
Assay: c-Raf HTRF assay with 6H-MEK as substrate (dose response)
Assay type: biochemical
Conditions: kinase enzyme inhibition, 6H-MEK substrate, read-out: cRaf IC50
Description: Kinase Enzyme Inhibition Assay (IC50)
c-Raf HTRF Assay With 6H-MEK as Substrate (Dose Response)
The assay utilizes 6H-MEK as the substrate. Upon c-Raf phosphorylation, phosphorylated 6H-MEK is detected with rabbit anti-phospho-MEK1/2, Eu-labeled anti-rabbit, and APC-labeled anti-6H antibodies.
Reagents and Instruments:
• Enzyme: cloned human c-Raf with EE-tag; phosphorylated (co-expressed with v-src-FLAG in baculovirus Hi5 cells), 0.2 mg/mL (2.74 μM assuming a molecular weight of 73 kD) stored at −15° C. • Substrate: WT full-length 6H-MEK, 4.94 mg/mL (154.4 μM assuming a MW of 32 kD) stored at −15° C. • Antibodies: Rabbit (α-P-(Ser 217/221)-MEK-1/2 Ab (from Cell Signaling, Cat. #9121B, Lot 14); Eu-(α-rabbit IgG (from Wallac, Cat. #AD0083, Lot 318663, 710 ug/mL, 4.4 μM); (α-6H-SureLight-APC (from Martek, Cat. #AD0059H, Lot E012AB01, 3.03 μM). • Reader: Envision from PerkinElmer, HTRF reading mode with 412 mirror • Assay Plate: Matrix all-black polypropylene plates (Cat. #4344) • Others: Weidman 384 polypropylene plates (REMP) for compound plate. Assay Procedure: • (1) Prepare Kinase Assay Buffer (KAB): 50 mM HEPES (HyClone) pH7, 10 mM MgCl2, 1 mM DTT, 0.1 mM […], and 0.3 mg/ml BSA. • (2) Prepare 6H-MEK (150 nM) in KAB. Add 12 μL/well to the assay plate. • (3) Prepare ATP (66 μM) in KAB. • (4) Dilute compounds to 2.4 mM and any positive controls to 480 μM in DMSO. Perform 10-point 3× dilution in DMSO. Withdraw 2.5 μL/well of DMSO solution and add to 27.5 μl/well ATP solution in (3). • (5) Mix, then add 6 μl/well of solution in (4) to the assay plate for a DMSO concentration of 2.1% during MEK phosphorylation. • (6) Prepare c-Raf (12 nM) in KAB. • (7) Add 6 μl/well of KAB in columns 1-2 and 6 μL/well of c-Raf in columns 3-24. • (8) Incubate at 37° C. for 30 min. • (9) Prepare rabbit (α-P-(Ser 217/221 )-MEK-1/2 Ab (1:240 from stock) in AB1: 50 mM HEPES pH7, 0.2 mg/mL BSA, and 43 mM EDTA. • (10) To stop reaction, add 6 μL/well of solution from (9) to the assay plate and incubate at 37° C. for 30 min. • (11) Prepare Eu-(α-rabbit IgG (9 nM) and (α-6H-SureLight-APC (120 nM) in AB2: 50 mM HEPES pH7 and 0.2 mg/mL BSA. • (12) Add 6 μl/well of solution from (11) to the assay plate. • (13) For determining the spectrum cross talk factor, prepare 2 samples following steps (1) to (10). For the blank sample, add 6 μl/well of AB2. For the cross talk factor sample, add 6 μL/well of Eu-anti rabbit IgG (9 nM). • (14) Incubate at room temperature for 1.5 hours. • (15) Read HTRF signals at 615 nm and 665 nm on the Envision. Normalize HTRF signals after spectrum cross-talk correction. Expression and Purification of c-Raf
N terminal EE-tagged c-Raf was expressed in High-5 cells. A five liter culture was co-transfected with virus for EE-c-Raf and FLAG-vSrc at a ratio of 1:2 and harvested after 48 hours. The cell pellet was lysed in TBS containing 5 mM EDTA, 50 mM KF, 20 mM Na pyrophosphate, 20 mM β-glycerolphosphate, 0.5 mM Na VO3, 1% NP-40 (w/v) and Complete Protease Tablets. The lysate was centrifuged at 20,000×g for 1 hour. The supernatant was incubated with 8 mL of anti-EE tag-Protein G Sepharose for 2 hours at 4° C. The resin was then washed with 30 volumes of the above buffer. The c-Raf protein was eluted by incubation with the above buffer containing 100 mg/mL of EE peptide for 1 hour at 4° C. The protein was concentrated using an Amicon Stir Cell with an YM10 membrane. The concentrated protein was dialyzed against TBS containing 1 mM DTT and 30% Glycerol. Protein concentration was determined by the BioRad DC method.
E. coli cells containing the plasmid for the expression of 6H-MEK1 (62-393) were grown in Rich Media and induced with 1 mM IPTG for 24 hours at 22° C. The cell pellet was resuspended in 50 mM potassium phosphate buffer, pH 8.0, 300 mM NaCl, 5 mM MgCl2, 10 mM CHAPS, 2 mM TCEP, and Complete Protease Inhibitor Tablets. Cells were disrupted by sonication. The lysate was cleared by centrifugation at 13,000×g for 45 minutes. […]

T1 sequence (P04049 whole entry): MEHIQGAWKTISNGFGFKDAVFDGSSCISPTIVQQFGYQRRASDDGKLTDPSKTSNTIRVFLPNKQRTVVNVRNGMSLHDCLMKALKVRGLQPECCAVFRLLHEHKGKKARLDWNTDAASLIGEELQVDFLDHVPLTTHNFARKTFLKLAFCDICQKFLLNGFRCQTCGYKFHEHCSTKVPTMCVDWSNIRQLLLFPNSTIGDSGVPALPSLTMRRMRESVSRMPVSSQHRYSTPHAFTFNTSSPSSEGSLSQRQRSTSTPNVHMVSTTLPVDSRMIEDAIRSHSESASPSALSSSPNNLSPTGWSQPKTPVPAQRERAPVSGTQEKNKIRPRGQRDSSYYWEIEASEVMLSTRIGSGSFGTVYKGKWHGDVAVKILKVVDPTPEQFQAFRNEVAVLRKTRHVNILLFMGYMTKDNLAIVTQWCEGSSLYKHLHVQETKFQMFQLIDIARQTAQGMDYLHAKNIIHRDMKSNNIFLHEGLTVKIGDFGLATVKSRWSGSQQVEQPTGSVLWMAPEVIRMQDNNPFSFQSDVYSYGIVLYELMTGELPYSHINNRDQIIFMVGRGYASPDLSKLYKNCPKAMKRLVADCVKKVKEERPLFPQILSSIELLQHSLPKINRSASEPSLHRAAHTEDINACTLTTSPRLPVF

SMILES | IC50
Cc1ccc(NC(=O)c2ccc(NCCO)c(Cl)c2)cc1OCc1nn(C)c2ncnc(N)c12 [Example 9, N-[3-(4-Amino-1-methyl-1H-pyrazolo[3,4-d]pyrimidin-3-ylmethoxy)-4-methyl-phenyl]-3-chloro-4-(2-hydroxy-ethylamino)-benzamide] | < 10 µM
Cc1noc(-c2ccc(C)c(OCc3nn(C)c4ncnc(N)c34)c2)n1 [Example 13, 4-Amino-1-1-methyl-3-[2-methyl-5-(3-methyl-[1,2,4]oxadiazol-5-yl)-phenoxymethyl]-1H-pyrazolo[3,4-d]pyrimidine] | < 10 µM
Cc1ccc(NC(=O)c2cccc(Cl)c2)cc1OCc1nn(C)c2ncnc(N)c12 [Example 11, N-[3-(4-Amino-1-methyl-1H-pyrazolo[3,4-d]pyrimidin-3-ylmethoxy)-4-methyl-phenyl]-3-chloro-benzamide] | < 10 µM
Cn1nc(COc2cccc(OCc3ccccc3)c2)c2c(N)ncnc21 [Example 7, 3-(3-Benzyloxy-phenoxymethyl)-1-methyl-1H-pyrazolo[3,4-d]pyrimidin-4-ylamine] | < 10 µM
Cc1ccc(OCc2ccccc2)cc1OCc1nn(C)c2ncnc(N)c12 [Example 15, 3-(5-Benzyloxy-2-methyl-phenoxymethyl)-1-methyl-1H-pyrazolo[3,4-d]pyrimidin-4-ylamine] | < 10 µM

Next, values leading:

IC50 | SMILES
< 10 µM | Cc1nnc(-c2ccc(C)c(OCc3nn(C)c4ncnc(N)c34)c2)o1 [Example 21, 1-Methyl-3-[2-methyl-5-(5-methyl-[1,3,4]oxadiazol-2-yl)-phenoxymethyl]-1H-pyrazolo[3,4-d]pyrimidin-4-ylamine]
< 10 µM | Cc1ccc(OCc2ccc(Cl)cc2)cc1OCc1nn(C)c2ncnc(N)c12 [Example 19, 3-[5-(4-Chloro-benzyloxy)-2-methyl-phenoxymethyl]-1-methyl-1H-pyrazolo[3,4-d]pyrimidin-4-ylamine]
< 10 µM | Cc1ccc(C(=O)Nc2ccc(Cl)cc2)cc1OCc1nn(C)c2ncnc(N)c12 [Example 17, 3-(4-Amino-1-methyl-1H-pyrazolo[3,4-d]pyrimidin-3-ylmethoxy)-N-(4-chloro-phenyl)-4-methyl-benzamide]

Reference: US7968554B2, “Pyrazolo[3,4-d]pyrimidine derivatives” (Hoffman-La Roche Inc., priority 2007, dated 2011)
